# Test results reported in patent US6372493B1, “Hormone-secreting cells maintained in long-term culture” (Pacific Biomedical Research, Inc. [Cell Mart, Inc.], priority 1991, dated 2002).
# Key:
# [1] = system: human pancreas whole islets; experiment: Insulin secretion of cultured whole islets in response to glucose, RIA (Example 24); assay type: cell-based; settings: +10 mM Glucose (Total 12 mM Glucose)
# Protocol: The whole islets were isolated and obtained as described in Example 22. Prior to this experiment they had been in culture for 3¾ months in OCZEM-M and were passage generation 11. Insulin secretion was measured by RIA (Diagnostic Products Corporation).
# The cultured whole islets were washed in basal medium [RPMI (5×@ 20 minutes) before the experiment. Then individual whole islets were cultured in the basal level medium containing 2 mM glucose described in Example 22 for 3½ hours (1 islet/1 ml). Each individual islet was then transferred to 1 ml of the basal medium containing an additional 10 mM glucose (to yield a total glucose concentration of 12 mM) and cultured for another 3½ hours. A comparison of the resulting amounts of secreted insulin is shown below in Table 16. Each individual islet was placed in a separate culture dish after the experiment so that future tests on insulin secretion could be measured on identified islets.
# [2] = system: pancreas cells in long-term culture; experiment: Glucose-stimulated insulin secretion, pancreas cells generation 47, frozen/thawed or not (Example 17); assay type: cell-based, human
# Protocol: The pancreas cell cultures described in Example 16 were passaged approximately every 3-5 days through generation 47. Passaging was done by placing 0.5-1.0 ml of cell suspension into 10 ml fresh medium in a flask. Each flask was flooded with medical blood gas mixture (supra), sealed, and maintained in an incubator at 37° C. Typically, each flask was flooded with fresh gas every other day. At passage 47, the cells had been in continuous culture for 9.5 months.
# A portion of the pancreas cells at generation 47 were frozen according to the method described in Example 15 using cryopreservative A. The cells were stored frozen for 1 day, after which they were thawed according to the method described in Example 15.
# The thawed cells and cells from generation 47 which had not been frozen were placed in DMSS medium and centrifuged at 1070 rpm for 5 minutes. The pellets were washed and resuspended in 30 ml of Medium PDM (Dulbecco's salt solution, phosphate buffered, with MgSO4 (no MgCl2), plus 2% BSA Fraction V), final osmolality adjusted to 272 mOsm) at 37°.
# The cells were incubated 30 minutes at 37°, then centrifuged and resuspended as above. Cell count and viability were determined by Trypan blue exclusion.
# The cells were then centrifuged and resuspended in a base medium consisting of 3 parts Medium PDM (supra) and 1 part DMSS, as defined in Example 6 above.
# [3] = system: cultured pancreatic islet cells (daughter-islets); experiment: Immunofluorescence for insulin after BUDR labelling and glucose stimulation (Example 23); assay type: cell-based, human; settings: 12 mM glucose 6 hours
# Protocol: The tests were done on the same long term cultured daughter-islets described in Example 22, after 3 months of culture (8 passage generations) and after 8 months of cell culture (16 passage generations). Cultures of the daughter-islets were exposed to 30 μgm/ml BUDR for 5 days. The cultures were then placed in normal culture medium (OCZEM-M) for another 5 days. Cultures were then given the same glucose poor basal medium described in Formula VI for 4 hours. Subsequently medium containing 12 mM glucose, described in Example 22, was provided for 6 hours. Cells were immediately fixed and prepared for immunofluorescence. A FITC conjugated secondary antibody to detect BUDR incorporation during DNA synthesis and a TRITC conjugated secondary antibody to detect insulin synthesis in response to glucose stimulation were used according to the following protocol.
# d. Cell preparation used procedures to swell the nucleus and preferentially fix the chromosomes in order to maximize the ability to detect BUDR incorporation. The procedures are commonly used to prepare human embryonic cells for florescence in situ hybridization (FISH).
# 9. Primary antibodies were added, 100 ul @ and the slides were incubated in a moist chamber for 18 hours at 20° C.
# 11. Secondary antibodies were added to EVERY slide (including the negative controls) in very dim light, 100 ul @ and then the slides were incubated in the dark for 60 minutes at room temperature.
# 16. After 24 hours the preparations were photographed with Kodak Ektar 100 using Zeiss optics and fluorescence filters (No 2 for Hoechst, No 9 for FITC and No 15 for TRITC).
smiles,measurement,setting,value
"O=C[C@H](O)[C@@H](O)[C@H](O)[C@H](O)CO [glucose, D(+)glucose]",Secreted Insulin,[1]; 2 Medium islets @,162.2 uIU/ml/hr
same,Secreted Insulin,[1]; 2 Very small islets @ (<0.5 μm),84.5 uIU/ml/hr
same,Secreted Insulin,"[1]; Extra large islet (>250 μm), 3½ hours",86.7 uIU/ml/hr
same,Secreted Insulin,[1]; Large islet (˜150 μm),149.4 uIU/ml/hr
same,Insulin secreted,"[2]; pg 47, glucose total 1 mM, 1.5 or 3 hours","92 μIU insulin secreted/ml/10,000"
same,Insulin secreted,"[2]; pg 47, glucose total 2 mM","100 μIU insulin secreted/ml/10,000"
same,Insulin secreted,"[2]; pg 47, glucose total 6 mM","111 μIU insulin secreted/ml/10,000"
same,Insulin secreted,"[2]; pg 47, glucose total 11 mM","117 μIU insulin secreted/ml/10,000"
same,Insulin secreted,"[2]; pg 47, glucose total 16 mM","129 μIU insulin secreted/ml/10,000"
same,Insulin secreted,"[2]; pg 47, glucose total 21 mM","116 μIU insulin secreted/ml/10,000"
same,Insulin secreted,"[2]; pg47 frozen/thawed, glucose total 1 mM","99 μIU insulin secreted/ml/10,000"
same,Insulin secreted,"[2]; pg47 frozen/thawed, glucose total 2 mM","105 μIU insulin secreted/ml/10,000"
same,Insulin secreted,"[2]; pg47 frozen/thawed, glucose total 6 mM","114 μIU insulin secreted/ml/10,000"
same,Insulin secreted,"[2]; pg47 frozen/thawed, glucose total 11 mM","128 μIU insulin secreted/ml/10,000"
same,Insulin secreted,"[2]; pg47 frozen/thawed, glucose total 16 mM","125 μIU insulin secreted/ml/10,000"
same,Insulin secreted,"[2]; pg47 frozen/thawed, glucose total 21 mM","124 μIU insulin secreted/ml/10,000"
same,Insulin positive,[3]; 8th passage generation (3 mo. culture),86%
same,Insulin positive (number of cells),"[3]; 8th passage generation (3 mo. culture), 204 cells analyzed",175
same,Insulin positive,[3]; 16th passage generation (8 mos. culture),90%
same,Insulin positive (number of cells),"[3]; 16th passage generation (8 mos. culture), 187 cells analyzed",168
